In the NIST ThermoML archive (doi:10.1016/j.tca.2016.05.013):
Numbers after ± are expanded uncertainties.

What was measured:
[1] = 86.8 kPa, Liquid; for speed of sound: Frequency=3 MHz, Sing-around technique in a fixed-path interferometer; for mass density: Vibrating tube method
[2] = refractive index (Na D-line) (dimensionless); details: 86.8 kPa, Liquid, Standard Abbe refractometry
[3] = refractive index (Na D-line) (dimensionless); mn = molality of the nth substance listed, in mol/kg; details: 86.8 kPa, Liquid, Standard Abbe refractometry, m2 = 0

speed of sound ([1]; 288.15 K) | mass density ([1]; 288.15 K) | speed of sound ([1]; 298.15 K) | mass density ([1]; 298.15 K) | speed of sound ([1]; 308.15 K) | mass density ([1]; 308.15 K) | speed of sound ([1]; 318.15 K) | mass density ([1]; 318.15 K) | refractive index ([2]; 288.15 K) | refractive index ([2]; 298.15 K) | refractive index ([2]; 308.15 K) | refractive index ([2]; 318.15 K) | refractive index ([3]; 288.15 K) | refractive index ([3]; 298.15 K) | refractive index ([3]; 308.15 K) | refractive index ([3]; 318.15 K) | SMILES
1721.6 ± 2.4 m/s | 1155.72 ± 1.6 kg/m3 | 1679.2 ± 2.4 m/s | 1148.81 ± 1.6 kg/m3 | 1640.9 ± 2.4 m/s | 1142.02 ± 1.6 kg/m3 | 1606.1 ± 2.4 m/s | 1135.41 ± 1.6 kg/m3 | 1.6503 ± 0.004 | 1.647 ± 0.004 | 1.6442 ± 0.004 | 1.6413 ± 0.004 | – | – | – | – | CCCCn1cc[n+](C)c1.O=C([O-])c1ccccc1O [1-butyl-3-methylimidazolium salicylate]
– | – | – | – | – | – | – | – | – | – | – | – | 1.3329 ± 0.004 | 1.3323 ± 0.004 | 1.3316 ± 0.004 | 1.3305 ± 0.004 | O [water] + CCCCn1cc[n+](C)c1.O=C([O-])c1ccccc1O
